Values quoted from earlier work in patent US11389471B2, “Systems and methods to improve organ or tissue function and organ or tissue transplant longevity” (Proterris Inc., priority 2014, dated 2022).

Settings: CO alveolar concentration of 25 ppm; CFK equation

In the case of [C-]#[O+] [CO, carbon monoxide], the “time to reach an equilibration point” value is given as “about 20 hours”.
